We go through 43 compounds from patent US11040954B1, “CXCR3 receptor agonists” (RECEPTOS LLC, priority 2016, dated 2021).

Each structure is given as a SMILES string. Where only a bound is given, the exact number is not on record here.

For the test, the target named is T1, CXCR3 (Homo sapiens, UniProt P49682).
T1 construct: host or cells: CHO-K1 (cAMP Hunter CHOK1 CXCR3 Gi cell line)
T1 sequence (P49682 1-368): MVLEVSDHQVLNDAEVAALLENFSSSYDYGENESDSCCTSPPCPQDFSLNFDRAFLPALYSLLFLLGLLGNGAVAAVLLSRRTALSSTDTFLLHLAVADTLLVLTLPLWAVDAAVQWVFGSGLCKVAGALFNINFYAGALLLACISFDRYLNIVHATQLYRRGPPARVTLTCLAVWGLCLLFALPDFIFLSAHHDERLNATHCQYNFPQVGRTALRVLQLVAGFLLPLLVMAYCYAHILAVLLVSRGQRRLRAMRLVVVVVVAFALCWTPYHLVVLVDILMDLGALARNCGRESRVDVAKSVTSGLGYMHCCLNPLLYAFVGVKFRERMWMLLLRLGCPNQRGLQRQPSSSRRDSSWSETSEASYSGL
As to the kind of experiment: CXCR3 cAMP agonist assay (cAMP Hunter CHOK1 CXCR3 Gi cell line, forskolin-stimulated, HitHunter cAMP detection). It counts as cell-based. The conditions noted are these: cAMP Hunter CHOK1 CXCR3 Gi cells, 20 μM forskolin, 30 minutes; read-out: Activity (CXCR3 cAMP agonist assay compound EC50). In short, it runs like this: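 Agonist activity was measured as suppression of forskolin (20 μM)-induced cAMP, read by luminescent enzyme-fragment complementation with a cAMP standard curve and CXCL11 defining full efficacy. Assay used 50,000 CXCR3 Gi CHOK1 cells/well in pH 7.4 HEPES-buffered HBSS with 0.1% BSA, compound 0-10 μM over 12 points, 30 min incubation.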

As a reminder, the EC50 is the midpoint of the concentration-response curve. Take `CC(=O)N1CCN(C(=O)CCC(=O)N2Cc3ccccc3C[C@H]2C(=O)N[C@@H](CCN)C(=O)Nc2ccc(Cl)c(C)c2)CC1` [Compound 12-106]: the EC50 was in the range of 250 to 500 nM.

As for `Cc1ccc(NC(=O)[C@H](CCN)NC(=O)[C@@H]2Cc3ccccc3CN2C(=O)CCC(=O)c2ccccc2)cc1Cl` [Compound 2-16], the EC50 was < 50 nM.

On to `[N-]=[N+]=NCC[C@H](NC(=O)[C@@H]1Cc2ccccc2CN1C(=O)CCC(=O)c1ccccc1)C(=O)Nc1ccc(Cl)c(Cl)c1F` [Compound 14-22, (S)—N—((S)-4-azido-1-((3,4-dichloro-2-fluorophenyl)amino)-1-oxobutan-2-yl)-2-(4-oxo-4-phenylbutanoyl)-1,2,3,4-tetrahydroisoquinoline-3-carboxamide], for which the half-maximal effective concentration (EC50) fell in the range of 250 to 500 nM.

As to `NCC[C@H](NC(=O)[C@@H]1Cc2ccccc2CN1C(=O)CCC(=O)N1CC2CCCCC2C1)C(=O)Nc1ccc(Cl)c(Cl)c1F` (stereo partly shown) [Compound 15-54], the EC50 was < 50 nM.

With `Cc1cc(NC(=O)[C@H](CCN)NC(=O)[C@@H]2Cc3ccccc3CN2C(=O)CCC(=O)N2CC3CCC2C3)ccc1Cl` (stereo partly shown) [Compound 12-32], the EC50 is < 50 nM.

Take `NCC[C@H](NC(=O)[C@@H]1Cc2ccccc2CN1C(=O)CCC(=O)c1ccccc1)C(=O)Nc1ccc(Cl)cc1Cl` [Compound 2-52]: the EC50 is 50 to 250 nM.

Regarding `Cc1c(NC(=O)C2(NC(=O)[C@@H]3Cc4ccccc4CN3C(=O)CCC(=O)c3ccccc3)CCNCC2)ccc(Cl)c1Cl` [Compound 11-2], the EC50 was 250 to 500 nM.

Consider `CCc1cccc(NC(=O)[C@H](CCN)NC(=O)[C@@H]2Cc3ccccc3CN2C(=O)CCC(=O)c2ccccc2)c1OC` [Compound 13-5], for which the concentration for a half-maximal effect (EC50) is 50 to 250 nM.

Take `Cc1ccc(NC(=O)[C@H](CCN)NC(=O)[C@@H]2Cc3ccccc3CN2C(=O)CCC(=O)c2ccccc2)c(F)c1` [Compound 2-31]: the EC50 lay within 50 to 250 nM.

Regarding `Cc1cc(NC(=O)[C@H](Cc2ccncc2)NC(=O)[C@@H]2Cc3ccccc3CN2C(=O)CCC(=O)c2ccccc2)ccc1Cl` [Compound 3-4], the EC50 fell in the range of 50 to 250 nM.

On to `CC(C)N(C(=O)CCC(=O)N1Cc2ccccc2C[C@H]1C(=O)N[C@@H](CCN)C(=O)Nc1ccc(Cl)c(Cl)c1F)C(C)C` [Compound 15-39], for which the EC50 lay in the range of 250 to 500 nM.

`Cc1cc(NC(=O)[C@H](CCCCN)NC(=O)[C@@H]2Cc3ccccc3CN2C(=O)CCC(=O)c2ccccc2)ccc1Cl` (stereo in doubt) [Compound 4-2, (S)—N—((S)-6-amino-1-((4-chloro-3-methylphenyl)amino)-1-oxohexan-2-yl)-2-(4-oxo-4-phenylbutanoyl)-1,2,3,4-tetrahydroisoquinoline-3-carboxamide]: the EC50 lay within 250 to 500 nM.

`Cc1cc(NC(=O)[C@H](Cc2c[nH]cn2)NC(=O)[C@@H]2Cc3ccccc3CN2C(=O)CCC(=O)c2ccccc2)ccc1Cl` [Compound 4-8]: the EC50 is < 50 nM.

For the compound `NCC[C@H](NC(=O)[C@@H]1Cc2ccccc2CN1C(=O)CCC(=O)c1ccccc1)C(=O)Nc1cccc(-c2ccccc2)c1` [Compound 2-29], the EC50 lay within 250 to 500 nM.

Turning to `NCCCC[C@H](NC(=O)[C@@H]1Cc2ccccc2CN1C(=O)CCC(=O)c1ccccc1)C(=O)Nc1cccc(Cl)c1` [Compound 1-9], the EC50 is 50 to 250 nM.

As for `Cc1cc(NC(=O)C(CCC2(N(C)C)COC2)NC(=O)[C@@H]2Cc3ccccc3CN2C(=O)CCC(=O)c2ccccc2)ccc1Cl` (stereo partly drawn) [Compound 21-1, (3S)—N-(1-((4-chloro-3-methylphenyl)amino)-4-(3-(dimethylamino)oxetan-3-yl)-1-oxobutan-2-yl)-2-(4-oxo-4-phenylbutanoyl)-1,2,3,4-tetrahydroisoquinoline-3-carboxamide], the EC50 is 50 to 250 nM.

As for `NCC[C@H](NC(=O)[C@@H]1Cc2ccccc2CN1C(=O)CCC(=O)N1CCC[C@H]1c1ccccc1)C(=O)Nc1ccc(Cl)c(Cl)c1F` [Compound 12-149], the EC50 was < 50 nM.

Turning to `CC(C)C1CCCCN1C(=O)CCC(=O)N1Cc2ccccc2C[C@H]1C(=O)N[C@@H](CCN)C(=O)Nc1ccc(Cl)c(Cl)c1F` (stereo partly shown) [Compound 15-21], the EC50 lay within 50 to 250 nM.

On to `CN(C(=O)CCC(=O)N1Cc2ccccc2C[C@H]1C(=O)N[C@@H](CCN)C(=O)Nc1ccc(Cl)c(Cl)c1F)C1CCC1` [Compound 15-37], for which the EC50 was in the range of 50 to 250 nM.

As to `NCCCC[C@H](NC(=O)[C@@H]1Cc2ccccc2CN1C(=O)CCC(=O)c1ccccc1)C(=O)Nc1cccc(C(F)(F)F)c1` [Compound 1-13], the EC50 lay in the range of 50 to 250 nM.

In the case of `NCC[C@H](NC(=O)[C@@H]1Cc2ccccc2CN1C(=O)CCC(=O)c1ccccc1)C(=O)Nc1cc(Cl)cc(Cl)c1` [Compound 2-17], the EC50 fell in the range of 50 to 250 nM.

As to `COC1CCN(C(=O)CCC(=O)N2Cc3ccccc3C[C@H]2C(=O)N[C@@H](CCN)C(=O)Nc2ccc(Cl)c(C)c2)CC1` [Compound 12-42], the EC50 is < 50 nM.

Turning to `Cc1cc(NC(=O)[C@H](CNC(=N)N)NC(=O)[C@@H]2Cc3ccccc3CN2C(=O)CCC(=O)c2ccccc2)ccc1Cl` [Compound 9-1, (S)—N—((S)-1-((4-chloro-3-methylphenyl)amino)-3-guanidino-1-oxopropan-2-yl)-2-(4-oxo-4-phenylbutanoyl)-1,2,3,4-tetrahydroisoquinoline-3-carboxamide], the 50% effective concentration (EC50) was < 50 nM.

Turning to `COC1CCN(CC[C@H](NC(=O)[C@@H]2Cc3ccccc3CN2C(=O)CCC(=O)c2ccccc2)C(=O)Nc2ccc(Cl)c(C)c2)CC1` [Compound 24-1, (S)—N—((S)-1-((4-chloro-3-methylphenyl)amino)-4-(4-methoxypiperidin-1-yl)-1-oxobutan-2-yl)-2-(4-oxo-4-phenylbutanoyl)-1,2,3,4-tetrahydroisoquinoline-3-carboxamide], the EC50 fell in the range of 50 to 250 nM.

For `COc1cc(F)c(C)cc1NC(=O)[C@H](CCN)NC(=O)[C@@H]1Cc2ccccc2CN1C(=O)CCC(=O)c1ccccc1` [Compound 2-60], the EC50 was 50 to 250 nM.

Take `NCC[C@H](NC(=O)[C@@H]1Cc2ccccc2CN1C(=O)CCC(=O)c1ccccc1)C(=O)Nc1cc(F)c(Cl)c(Cl)c1` [Compound 27-6]: the EC50 was in the range of 50 to 250 nM.

Take `Cc1cc(NC(=O)[C@H](CCC2CCN(C(=O)OC(C)(C)C)CC2)NC(=O)[C@@H]2Cc3ccccc3CN2C(=O)CCC(=O)c2ccccc2)ccc1Cl` [Compound 17-2]: the EC50 fell in the range of 250 to 500 nM.

As to `CC(C)(C)CNC(=O)CCC(=O)N1Cc2ccccc2C[C@H]1C(=O)NC1(C(=O)Nc2ccc(Cl)c(Cl)c2F)CCNCC1` [Compound 12-129], the EC50 is 250 to 500 nM.

Consider `CC1(C)CCCCN1C(=O)CCC(=O)N1Cc2ccccc2C[C@H]1C(=O)N[C@H](CCN1CCC(O)CC1)C(=O)Nc1ccc(Cl)c(Cl)c1F` [Compound 26-2], for which the EC50 was < 50 nM.

Take `Cc1cc(NC(=O)[C@H](CCN)NC(=O)[C@@H]2Cc3ccccc3CN2C(=O)CCC(=O)N2CCc3ccccc3C2)ccc1Cl` [Compound 12-76]: the EC50 was < 50 nM.

For `CN(CC(C)(C)C)C(=O)CCC(=O)N1Cc2ccccc2C[C@H]1C(=O)N[C@@H](CCN)C(=O)Nc1ccc(Cl)c(Cl)c1F` [Compound 15-43], the EC50 is < 50 nM.

On to `COc1cc(C)ccc1NC(=O)[C@H](CCN)NC(=O)[C@@H]1Cc2ccccc2CN1C(=O)CCC(=O)c1ccccc1` [Compound 1-37], for which the EC50 is 50 to 250 nM.

Consider `Cc1cc(NC(=O)[C@H](CCN)NC(=O)[C@@H]2Cc3ccccc3CN2C(=O)CCC(=O)N2CCC[C@H](C)C2)ccc1Cl` [Compound 12-58], for which the concentration for a half-maximal effect (EC50) was < 50 nM.

Take `COc1cc(Cl)c(C)cc1NC(=O)[C@H](CCN)NC(=O)[C@@H]1Cc2ccccc2CN1C(=O)CCC(=O)c1ccccc1` [Compound 2-25]: the EC50 was < 50 nM.

On to `O=C(NC1(C(=O)Nc2ccc(Cl)c(Cl)c2F)CCNCC1)[C@@H]1Cc2ccccc2CN1C(=O)CCC(=O)N1CCCC2(CCC2)C1` [Compound 12-128], for which the EC50 was < 50 nM.

Turning to `NCC[C@H](NC(=O)[C@@H]1Cc2ccccc2CN1C(=O)CCC(=O)N1CCCC(CF)C1)C(=O)Nc1ccc(Cl)c(Cl)c1F` (stereo partly shown) [Compound 15-25], the EC50 is < 50 nM.

Consider `Cc1cc(NC(=O)[C@H](CCN)NC(=O)[C@@H]2Cc3ccccc3CN2C(=O)CCC(=O)N2CCN(S(C)(=O)=O)CC2)ccc1Cl` [Compound 12-15], for which the EC50 lay in the range of 50 to 250 nM.

For the compound `CN(C(=O)CCC(=O)N1Cc2ccccc2C[C@H]1C(=O)NC1(C(=O)Nc2ccc(Cl)c(Cl)c2F)CCNCC1)C(C)(C)C` [Compound 12-125], the concentration giving a half-maximal response (EC50) lay within 50 to 250 nM.

On to `NCCCC[C@H](NC(=O)[C@@H]1Cc2ccccc2CN1C(=O)CCC(=O)c1ccccc1)C(=O)Nc1ccc(Cl)cc1F` [Compound 1-23], for which the EC50 is 50 to 250 nM.

In the case of `Cc1cc(NC(=O)[C@H](CCN)NC(=O)[C@@H]2Cc3ccccc3CN2C(=O)CCC(=O)NCCC(C)C)ccc1Cl` [Compound 12-80], the EC50 was < 50 nM.

Regarding `Cc1c(Cl)ccc(NC(=O)C(CCN2CCC(O)CC2)NC(=O)[C@@H]2Cc3ccccc3CN2C(=O)CCC(=O)c2ccccc2)c1Cl` (mixture of isomers) [Compound 25-1, (3S)—N-(1-((2,4-dichloro-3-methylphenyl)amino)-4-(4-hydroxypiperidin-1-yl)-1-oxobutan-2-yl)-2-(4-oxo-4-phenylbutanoyl)-1,2,3,4-tetrahydroisoquinoline-3-carboxamide], the 50% effective concentration (EC50) was 50 to 250 nM.

With `Cc1cc(NC(=O)[C@H](CCN)NC(=O)[C@@H]2Cc3ccccc3CN2C(=O)CCC(=O)N2C(C)CCC2C)ccc1Cl` (stereo partly shown) [Compound 12-47], the EC50 was < 50 nM.

Turning to `NCC[C@H](NC(=O)[C@@H]1Cc2ccccc2CN1C(=O)CCC(=O)c1ccccc1)C(=O)Nc1cccc2c1CCC2` [Compound 2-67], the half-maximal effective concentration (EC50) is < 50 nM.
